Test results published in PubChem BioAssay AID1963439 (Molecular Pharmacology Branch, DTP, NCI, 2024).

Tested on: NCI-H196 complex spheroids with HUVEC/MSC, growth % T/C
Test: Anticancer human tumor NCI-H196 cell line growth inhibition [Asc];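 note: spheroids exposed to compound for 7 days before measurement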;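 for viability, T/C: 100% = DMSO vehicle control wells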
Details: for IC50: curve of first compound; for viability, T/C: stronger effect = lower value
Outline: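 Stromal components (HUVEC and hMSC) are co-assembled with the cancer cells into multicellular spheroids. Drugs are then added singly or paired, at concentrations falling by half-log increments from a clinically achievable maximum, capped at 10 microM without known Cmax.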

[1] = second compound 0.1 µM, first compound 0.0316 µM
[2] = second compound 0.1 µM, first compound 0.1 µM
[3] = second compound 0.1 µM, first compound 0.316 µM
[4] = second compound 0.1 µM, first compound 1 µM
[5] = second compound 0.316 µM, first compound 0.0316 µM
[6] = second compound 0.316 µM, first compound 0.1 µM
[7] = second compound 0.316 µM, first compound 0.316 µM
[8] = second compound 0.316 µM, first compound 1 µM
[9] = second compound 1 µM, first compound 0.0316 µM
[10] = second compound 1 µM, first compound 0.1 µM
[11] = second compound 1 µM, first compound 0.316 µM
[12] = second compound 1 µM, first compound 1 µM
[13] = second compound 3.16 µM, first compound 0.0316 µM
[14] = second compound 3.16 µM, first compound 0.1 µM
[15] = second compound 3.16 µM, first compound 0.316 µM
[16] = second compound 3.16 µM, first compound 1 µM
[17] = second compound 10 µM, first compound 0.0316 µM
[18] = second compound 10 µM, first compound 0.1 µM
[19] = second compound 10 µM, first compound 0.316 µM
[20] = second compound 10 µM, first compound 1 µM

C#Cc1c(F)ccc2cc(O)cc(-c3ncc4c(N5CC6CCC(C5)N6)nc(OCC56CCCN5CC(F)C6)nc4c3F)c12 (stereo not given) + Cc1c(S(C)(=O)=O)c(-c2cc(F)cc(N3CCN(c4ccc(NS(=O)(=O)c5ccc(NC(CCN6CCC(C(=O)OCCCP(=O)(O)O)CC6)CSc6ccccc6)c(S(=O)(=O)C(F)(F)F)c5)cc4)CC3)c2)c(-c2ccc(Cl)cc2)n1C(C)C
IC50 (second compound 0.1 µM): > 10000 nM
IC50 (second compound 0.316 µM): > 10000 nM
IC50 (second compound 1 µM): > 10000 nM
IC50 (second compound 3.16 µM): > 10000 nM
IC50 (second compound 10 µM): > 10000 nM
viability, T/C [1]: 92.8%
viability, T/C [2]: 93%
viability, T/C [3]: 98.2%
viability, T/C [4]: 98.1%
viability, T/C (second compound 0.1 µM, first compound 3.16 µM): 94.2%
viability, T/C (second compound 0.1 µM, first compound 10 µM): 93.5%
viability, T/C [5]: 98.3%
viability, T/C [6]: 93.3%
viability, T/C [7]: 88.8%
viability, T/C [8]: 97.8%
viability, T/C (second compound 0.316 µM, first compound 3.16 µM): 94.8%
viability, T/C (second compound 0.316 µM, first compound 10 µM): 88.1%
viability, T/C [9]: 88.9%
viability, T/C [10]: 87.7%
viability, T/C [11]: 90.8%
viability, T/C [12]: 89.2%
viability, T/C (second compound 1 µM, first compound 3.16 µM): 93.7%
viability, T/C (second compound 1 µM, first compound 10 µM): 83.7%
viability, T/C [13]: 84.4%
viability, T/C [14]: 86.7%
viability, T/C [15]: 81.3%
viability, T/C [16]: 75.5%
viability, T/C (second compound 3.16 µM, first compound 3.16 µM): 78.5%
viability, T/C (second compound 3.16 µM, first compound 10 µM): 70.1%
viability, T/C [17]: 71.8%
viability, T/C [18]: 77.8%
viability, T/C [19]: 82.7%
viability, T/C [20]: 80.4%
viability, T/C (second compound 10 µM, first compound 3.16 µM): 71.2%
viability, T/C (second compound 10 µM, first compound 10 µM): 58%

CNC(C)C(=O)NC1CN(S(=O)(=O)c2cccc(S(=O)(=O)N3CCC4CCC(C(=O)NC(c5ccccc5)c5ccccc5)N4C(=O)C(NC(=O)C(C)NC)C3)c2)CCC2CCC(C(=O)NC(c3ccccc3)c3ccccc3)N2C1=O (stereo not given) + Cc1c(S(C)(=O)=O)c(-c2cc(F)cc(N3CCN(c4ccc(NS(=O)(=O)c5ccc(NC(CCN6CCC(C(=O)OCCCP(=O)(O)O)CC6)CSc6ccccc6)c(S(=O)(=O)C(F)(F)F)c5)cc4)CC3)c2)c(-c2ccc(Cl)cc2)n1C(C)C
IC50 (second compound 0.1 µM): < 3.16 nM
IC50 (second compound 0.316 µM): < 3.16 nM
IC50 (second compound 1 µM): < 3.16 nM
IC50 (second compound 3.16 µM): < 3.16 nM
IC50 (second compound 10 µM): < 3.16 nM
viability, T/C (second compound 0.1 µM, first compound 0.00316 µM): 34.8%
viability, T/C (second compound 0.1 µM, first compound 0.01 µM): 14.2%
viability, T/C [1]: 3.61%
viability, T/C [2]: 1.15%
viability, T/C [3]: 1.37%
viability, T/C [4]: 1.37%
viability, T/C (second compound 0.316 µM, first compound 0.00316 µM): 34.8%
viability, T/C (second compound 0.316 µM, first compound 0.01 µM): 13.5%
viability, T/C [5]: 2.75%
viability, T/C [6]: 2.2%
viability, T/C [7]: 0.94%
viability, T/C [8]: 0.56%
viability, T/C (second compound 1 µM, first compound 0.00316 µM): 32.3%
viability, T/C (second compound 1 µM, first compound 0.01 µM): 10.1%
viability, T/C [9]: 3.17%
viability, T/C [10]: 2.28%
viability, T/C [11]: 1.22%
viability, T/C [12]: 0.43%
viability, T/C (second compound 3.16 µM, first compound 0.00316 µM): 31.1%
viability, T/C (second compound 3.16 µM, first compound 0.01 µM): 11%
viability, T/C [13]: 3.34%
viability, T/C [14]: 0.68%
viability, T/C [15]: 0.36%
viability, T/C [16]: 0.39%
viability, T/C (second compound 10 µM, first compound 0.00316 µM): 28.9%
viability, T/C (second compound 10 µM, first compound 0.01 µM): 6.64%
viability, T/C [17]: 2.27%
viability, T/C [18]: 0.74%
viability, T/C [19]: 0.42%
viability, T/C [20]: 0.45%

Cc1nc(N2CCC3(CC2)COC(C)C3N)c(CO)nc1Sc1ccnc(N)c1Cl (stereo not given) + Cc1c(S(C)(=O)=O)c(-c2cc(F)cc(N3CCN(c4ccc(NS(=O)(=O)c5ccc(NC(CCN6CCC(C(=O)OCCCP(=O)(O)O)CC6)CSc6ccccc6)c(S(=O)(=O)C(F)(F)F)c5)cc4)CC3)c2)c(-c2ccc(Cl)cc2)n1C(C)C
IC50 (second compound 0.1 µM): 1350 nM
IC50 (second compound 0.316 µM): 1140 nM
IC50 (second compound 1 µM): 1150 nM
IC50 (second compound 3.16 µM): 930 nM
IC50 (second compound 10 µM): 1170 nM
viability, T/C (second compound 0.1 µM, first compound 0.00949 µM): 111%
viability, T/C (second compound 0.1 µM, first compound 0.03 µM): 118%
viability, T/C (second compound 0.1 µM, first compound 0.0949 µM): 96.2%
viability, T/C (second compound 0.1 µM, first compound 0.3 µM): 87.8%
viability, T/C (second compound 0.1 µM, first compound 0.949 µM): 60.1%
viability, T/C (second compound 0.1 µM, first compound 3 µM): 26.3%
viability, T/C (second compound 0.316 µM, first compound 0.00949 µM): 93.4%
viability, T/C (second compound 0.316 µM, first compound 0.03 µM): 102%
viability, T/C (second compound 0.316 µM, first compound 0.0949 µM): 109%
viability, T/C (second compound 0.316 µM, first compound 0.3 µM): 93.8%
viability, T/C (second compound 0.316 µM, first compound 0.949 µM): 55.2%
viability, T/C (second compound 0.316 µM, first compound 3 µM): 24%
viability, T/C (second compound 1 µM, first compound 0.00949 µM): 93.1%
viability, T/C (second compound 1 µM, first compound 0.03 µM): 97.9%
viability, T/C (second compound 1 µM, first compound 0.0949 µM): 98.1%
viability, T/C (second compound 1 µM, first compound 0.3 µM): 87%
viability, T/C (second compound 1 µM, first compound 0.949 µM): 55.4%
viability, T/C (second compound 1 µM, first compound 3 µM): 24%
viability, T/C (second compound 3.16 µM, first compound 0.00949 µM): 93.9%
viability, T/C (second compound 3.16 µM, first compound 0.03 µM): 97.8%
viability, T/C (second compound 3.16 µM, first compound 0.0949 µM): 103%
viability, T/C (second compound 3.16 µM, first compound 0.3 µM): 84.9%
viability, T/C (second compound 3.16 µM, first compound 0.949 µM): 49.9%
viability, T/C (second compound 3.16 µM, first compound 3 µM): 22.9%
viability, T/C (second compound 10 µM, first compound 0.00949 µM): 84.7%
viability, T/C (second compound 10 µM, first compound 0.03 µM): 93.7%
viability, T/C (second compound 10 µM, first compound 0.0949 µM): 88.5%
viability, T/C (second compound 10 µM, first compound 0.3 µM): 78%
viability, T/C (second compound 10 µM, first compound 0.949 µM): 55.9%
viability, T/C (second compound 10 µM, first compound 3 µM): 24.7%
